Experimental data: patent US6737383B1, “Herbicidal oxadiazolidines” (priority 1999, dated 2004)

Key:
soybean = experiment: Test B pre/postemergence soybean; type: in vivo, Glycine max
Procedure, shortened: (§1)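 Test chemicals in a non-phytotoxic solvent mixture with surfactant were sprayed preemergence onto planted seeds and postemergence onto plants 2 to 18 cm tall (1- to 4-leaf stage). After twelve to sixteen days in a greenhouse, injury was visually rated against untreated controls from 0 (no effect) to 10 (complete control).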

pigweed = experiment: Test B pre/postemergence pigweed; type: in vivo, Amaranthus retroflexus
Procedure, shortened: as §1

bamyardgrass = experiment: Test B flood test barnyardgrass; type: in vivo, Echinochloa crus-galli
Procedure, shortened: (§2)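 Each value is a visual injury score relative to controls, with 10 meaning complete control and 0 no effect. Evaluation took place twelve to sixteen days after the 2-leaf-stage plants were treated and kept in the greenhouse.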

surinam grass = experiment: Test B pre/postemergence surinam grass; type: in vivo, Brachiaria decumbens
Procedure, shortened: as §1

morningglory = experiment: Test B pre/postemergence morningglory; type: in vivo, Ipomoea hederacea
Procedure, shortened: as §1

bedstraw = experiment: Test B pre/postemergence bedstraw; type: in vivo, Galium aparine
Procedure, shortened: as §1

sugar beet = experiment: Test B pre/postemergence sugar beet; type: in vivo, Beta vulgaris
Procedure, shortened: as §1

cocklebur = experiment: Test B pre/postemergence cocklebur; type: in vivo, Xanthium strumarium
Procedure, shortened: as §1

rice = experiment: Test B flood test rice; type: in vivo, Oryza sativa
Procedure, shortened: as §2

blackgrass = experiment: Test B pre/postemergence blackgrass; type: in vivo, Alopecurus myosuroides
Procedure, shortened: as §1

purple nutsedge = experiment: Test B pre/postemergence purple nutsedge; type: in vivo, Cyperus rotundus
Procedure, shortened: as §1

wild oat = experiment: Test B pre/postemergence wild oat; type: in vivo, Avena fatua
Procedure, shortened: as §1

smallflower flatsedge = experiment: Test B flood test smallflower flatsedge; type: in vivo, Cyperus difformis
Procedure, shortened: as §2

velvetleaf = experiment: Test B pre/postemergence velvetleaf; type: in vivo, Abutilon theophrasti
Procedure, shortened: as §1

corn = experiment: Test B pre/postemergence corn; type: in vivo, Zea mays
Procedure, shortened: as §1

rape = experiment: Test B pre/postemergence rape; type: in vivo, Brassica napus
Procedure, shortened: as §1

[1] = Postemergence, Rate 62 g/ha, scale 0 to 10, 0 is no effect, 10 is complete control
[2] = Postemergence, Rate 250 g/ha, scale 0 to 10, 0 no effect, 10 complete control
[3] = Postemergence, Rate 1000 g/ha, scale 0 to 10 (0 no effect, 10 complete control)
[4] = Preemergence, Rate 31 g/ha, visual rating, scale 0 to 10 (0 no effect, 10 complete control)
[5] = Preemergence, Rate 62 g/ha, scale 0 to 10, 0 is no effect, 10 is complete control
[6] = Preemergence, Rate 125 g/ha, scale 0 to 10 (0 no effect, 10 complete control)
[7] = Preemergence, Rate 250 g/ha, scale of 0 to 10 where 0 is no effect and 10 is complete control
[8] = Preemergence, Rate 500 g/ha, scale 0 (no effect) to 10 (complete control)
[9] = Rate 125 g/ha, Postemergence, scale 0 to 10, 0 no effect, 10 complete control
[10] = Rate 1000 g/ha, Preemergence, scale 0 to 10 (0 no effect, 10 complete control)
[11] = Rate 31 g/ha, Postemergence, scale 0 to 10
[12] = Rate 500 g/ha, Postemergence, 0 to 10 scale (0 no effect, 10 complete control)
[13] = Rate 31 g/ha, Postemergence section (flood test species), scale 0 to 10
[14] = Rate 125 g/ha, Postemergence section (flood test species), scale 0 to 10, 0 no effect, 10 complete control
[15] = Rate 500 g/ha, Postemergence section of Table B, 0 to 10 scale (0 no effect, 10 complete control)
[16] = flood test, listed under Postemergence, Rate 250 g/ha, scale 0 to 10, 0 no effect, 10 complete control

Cc1ccccc1-n1c(=O)on(C(=O)N(c2ccc(F)cc2)C(C)C)c1=O [Compound 4]
Soybean plant response rating (soybean; [1]): 2
Soybean plant response rating (soybean; [2]): 4
Soybean plant response rating (soybean; [3]): 5
Soybean plant response rating (soybean; [4]): 0
Plant response rating, Soybean (soybean; [5]): 0
Plant response rating, Soybean (soybean; [6]): 0
Plant response rating, Soybean (soybean; [7]): 0
Soybean plant response rating (soybean; [8]): 0
Soybean plant response rating (soybean; [9]): 4
Plant response rating, Soybean (soybean; [10]): 1
Redroot pigweed plant response rating (pigweed; [1]): 0
Redroot pigweed plant response rating (pigweed; [2]): 5
Redroot pigweed plant response rating (pigweed; [3]): 8
Redroot pigweed plant response rating (pigweed; [4]): 0
Plant response rating, Redroot pigweed (pigweed; [5]): 2
Plant response rating, Redroot pigweed (pigweed; [6]): 5
Plant response rating, Redroot pigweed (pigweed; [7]): 8
Redroot pigweed plant response rating (pigweed; [11]): 0
Redroot pigweed plant response rating (pigweed; [9]): 4
Redroot pigweed plant response rating (pigweed; [12]): 7
Plant response rating, Redroot pigweed (pigweed; [10]): 8
Barnyardgrass plant response rating (bamyardgrass; [1]): 0
Barnyardgrass plant response rating (bamyardgrass; [3]): 4
Barnyardgrass plant response rating (bamyardgrass; [13]): 0
Barnyardgrass plant response rating (bamyardgrass; [14]): 0
Barnyardgrass plant response rating (bamyardgrass; [15]): 4
Barnyardgrass plant response rating (bamyardgrass; [16]): 3
B. signalgrass plant response rating (surinam grass; [1]): 0
B. signalgrass plant response rating (surinam grass; [2]): 0
B. signalgrass plant response rating (surinam grass; [3]): 4
B. signalgrass plant response rating (surinam grass; [4]): 0
Plant response rating, B. signalgrass (surinam grass; [5]): 0
Plant response rating, B. signalgrass (surinam grass; [6]): 7
Plant response rating, B. signalgrass (surinam grass; [7]): 8
B. signalgrass plant response rating (surinam grass; [8]): 9
B. signalgrass plant response rating (surinam grass; [11]): 0
B. signalgrass plant response rating (surinam grass; [9]): 0
B. signalgrass plant response rating (surinam grass; [12]): 2
Plant response rating, B. signalgrass (surinam grass; [10]): 10
Morningglory plant response rating (morningglory; [1]): 0
Morningglory plant response rating (morningglory; [2]): 3
Morningglory plant response rating (morningglory; [3]): 3
Morningglory plant response rating (morningglory; [4]): 0
Plant response rating, Morningglory (morningglory; [5]): 0
Plant response rating, Morningglory (morningglory; [6]): 0
Plant response rating, Morningglory (morningglory; [7]): 0
Morningglory plant response rating (morningglory; [8]): 0
Morningglory plant response rating (morningglory; [11]): 0
Morningglory plant response rating (morningglory; [9]): 2
Morningglory plant response rating (morningglory; [12]): 3
Plant response rating, Morningglory (morningglory; [10]): 0
Bedstraw plant response rating (bedstraw; [1]): 0
Bedstraw plant response rating (bedstraw; [2]): 7
Bedstraw plant response rating (bedstraw; [3]): 8
Bedstraw plant response rating (bedstraw; [4]): 0
Plant response rating, Bedstraw (bedstraw; [5]): 0
Plant response rating, Bedstraw (bedstraw; [6]): 1
Plant response rating, Bedstraw (bedstraw; [7]): 4
Bedstraw plant response rating (bedstraw; [8]): 4
Bedstraw plant response rating (bedstraw; [11]): 0
Bedstraw plant response rating (bedstraw; [9]): 5
Bedstraw plant response rating (bedstraw; [12]): 7
Plant response rating, Bedstraw (bedstraw; [10]): 6
Sugarbeets plant response rating (sugar beet; [1]): 0
Sugarbeets plant response rating (sugar beet; [2]): 3
Sugarbeets plant response rating (sugar beet; [3]): 4
Sugarbeets plant response rating (sugar beet; [4]): 0
Plant response rating, Sugarbeets (sugar beet; [5]): 0
Plant response rating, Sugarbeets (sugar beet; [6]): 7
Plant response rating, Sugarbeets (sugar beet; [7]): 8
Sugarbeets plant response rating (sugar beet; [8]): 3
Sugarbeets plant response rating (sugar beet; [9]): 2
Plant response rating, Sugarbeets (sugar beet; [10]): 4
Cocklebur plant response rating (cocklebur; [1]): 0
Cocklebur plant response rating (cocklebur; [2]): 6
Cocklebur plant response rating (cocklebur; [3]): 8
Cocklebur plant response rating (cocklebur; [4]): 0
Plant response rating, Cocklebur (cocklebur; [5]): 0
Plant response rating, Cocklebur (cocklebur; [6]): 0
Plant response rating, Cocklebur (cocklebur; [7]): 0
Cocklebur plant response rating (cocklebur; [8]): 0
Cocklebur plant response rating (cocklebur; [11]): 0
Cocklebur plant response rating (cocklebur; [9]): 2
Cocklebur plant response rating (cocklebur; [12]): 6
Plant response rating, Cocklebur (cocklebur; [10]): 0
Rice plant response rating (rice; [1]): 0
Rice plant response rating (rice; [3]): 0
Rice plant response rating (rice; [13]): 0
Rice plant response rating (rice; [14]): 0
Rice plant response rating (rice; [15]): 0
Rice plant response rating (rice; [16]): 0
Blackgrass plant response rating (blackgrass; [1]): 0
Blackgrass plant response rating (blackgrass; [2]): 5
Blackgrass plant response rating (blackgrass; [3]): 6
Blackgrass plant response rating (blackgrass; [4]): 0
Plant response rating, Blackgrass (blackgrass; [5]): 0
Plant response rating, Blackgrass (blackgrass; [6]): 6
Plant response rating, Blackgrass (blackgrass; [7]): 8
Blackgrass plant response rating (blackgrass; [8]): 8
Blackgrass plant response rating (blackgrass; [11]): 0
Blackgrass plant response rating (blackgrass; [9]): 4
Blackgrass plant response rating (blackgrass; [12]): 6
Plant response rating, Blackgrass (blackgrass; [10]): 10
Nutsedge plant response rating (purple nutsedge; [1]): 0
Nutsedge plant response rating (purple nutsedge; [2]): 0
Nutsedge plant response rating (purple nutsedge; [3]): 0
Nutsedge plant response rating (purple nutsedge; [4]): 0
Plant response rating, Nutsedge (purple nutsedge; [5]): 0
Plant response rating, Nutsedge (purple nutsedge; [6]): 0
Plant response rating, Nutsedge (purple nutsedge; [7]): 0
Nutsedge plant response rating (purple nutsedge; [8]): 0
Nutsedge plant response rating (purple nutsedge; [11]): 0
Nutsedge plant response rating (purple nutsedge; [9]): 0
Nutsedge plant response rating (purple nutsedge; [12]): 0
Plant response rating, Nutsedge (purple nutsedge; [10]): 0
Wild oats plant response rating (wild oat; [1]): 0
Wild oats plant response rating (wild oat; [2]): 0
Wild oats plant response rating (wild oat; [3]): 0
Wild oats plant response rating (wild oat; [4]): 0
Plant response rating, Wild oats (wild oat; [6]): 0
Plant response rating, Wild oats (wild oat; [7]): 4
Wild oats plant response rating (wild oat; [8]): 7
Wild oats plant response rating (wild oat; [9]): 0
Plant response rating, Wild oats (wild oat; [10]): 8
S. Flatsedge plant response rating (smallflower flatsedge; [1]): 0
S. Flatsedge plant response rating (smallflower flatsedge; [3]): 4
S. Flatsedge plant response rating (smallflower flatsedge; [14]): 0
S. Flatsedge plant response rating (smallflower flatsedge; [16]): 2
Velvetleaf plant response rating (velvetleaf; [1]): 0
Velvetleaf plant response rating (velvetleaf; [2]): 3
Velvetleaf plant response rating (velvetleaf; [3]): 7
Velvetleaf plant response rating (velvetleaf; [4]): 0
Plant response rating, Velvetleaf (velvetleaf; [5]): 0
Plant response rating, Velvetleaf (velvetleaf; [6]): 0
Plant response rating, Velvetleaf (velvetleaf; [7]): 0
Velvetleaf plant response rating (velvetleaf; [8]): 0
Velvetleaf plant response rating (velvetleaf; [9]): 3
Plant response rating, Velvetleaf (velvetleaf; [10]): 0
Corn plant response rating (corn; [1]): 0
Corn plant response rating (corn; [2]): 0
Corn plant response rating (corn; [3]): 0
Corn plant response rating (corn; [4]): 0
Plant response rating, Corn (corn; [5]): 0
Plant response rating, Corn (corn; [6]): 0
Plant response rating, Corn (corn; [7]): 0
Corn plant response rating (corn; [8]): 0
Corn plant response rating (corn; [11]): 0
Corn plant response rating (corn; [9]): 0
Corn plant response rating (corn; [12]): 0
Plant response rating, Corn (corn; [10]): 0
Rape plant response rating (rape; [1]): 0
Rape plant response rating (rape; [2]): 0
Rape plant response rating (rape; [3]): 3
Rape plant response rating (rape; [4]): 0
Plant response rating, Rape (rape; [5]): 0
Plant response rating, Rape (rape; [6]): 0
Plant response rating, Rape (rape; [7]): 6
Rape plant response rating (rape; [8]): 0
Rape plant response rating (rape; [11]): 0
Rape plant response rating (rape; [9]): 0
Rape plant response rating (rape; [12]): 2
Plant response rating, Rape (rape; [10]): 3
